Experiments:
eosinophils = conditions: ref. [31]; cited from earlier work
Extracellular vesicles = assay: Radiolabelling efficiency of extracellular vesicles; conditions: EVs from B16-F10.GFP, MDA-MB-231.CD63-GFP, PANC1, 4T1 and 2D/3D MSC cultures
Method: FIG. 23. Use of the kit formulation to radiolabel extracellular vesicles (EVs) for imaging purposes.
Extracellular vesicles are isolated by any suitable method (e.g. by density gradient centrifugation). Extracellular vesicles (e.g. 1×10^10 to 1×10^11 vesicles) in 160 µL PBS were incubated with 20 µL ^89Zr-oxine or unchelated ^89Zr for 20 min at 37° C. with frequent shaking, followed by addition of 100 µL 1% deferoxamine in PBS to trap any unbound ^89Zr. Radiolabelled EVs were purified from unchelated radiotracer by size-exclusion chromatography (SEC) using cross-linked agarose resin (e.g. Sepharose CL-2B, GE Healthcare) in plastic columns. The reaction mixture was loaded onto the column followed by 200 µL PBS and eluted with 700-800 µL PBS. Radioactivity of the eluate and the column was measured using gamma counting to calculate labelling efficiency. The labelling efficiency of EVs obtained from B16-F10.GFP, MDA-MB-231.CD63-GFP, PANC1 and 4T1 cell lines and from 2D and 3D cultures of mesenchymal stem cells (MSC) B with ^89Zr-oxine ranged from 5.4 ± 3.2% for 2D-culture derived MSC-EVs to 27.6 ± 6.5% for 4T1 EVs (FIG. 23).

[1] = Activity recovery from vial (gamma-counting of aliquots); format: physicochemical; conditions: for added ^89Zr activity recoverable: formulation with 5% EtOH
Method: FIG. 9. Recovery of ^89Zr-oxine complexes from the reaction vial over time. The figure compares formulations containing 8-hydroxyquinoline, HEPES and NaOH only (dots), and additional 5% EtOH (squares) or 1 mg/mL polysorbate 80 (diamonds). ^89Zr-oxalate was added to 100 µL of the formulation of the invention in a glass vial and left at room temperature for up to 1 week. 10 µL aliquots were removed from the glass vial immediately after addition (0 min) and after 15 min, 30 min, 1, 2, 24, 48, 72 and 168 h, then gamma-counted at the end of the experiment. The recovered activity is expressed as the activity in the aliquot at the indicated time as a percentage of the activity sampled immediately after addition of ^89Zr to the-formulation of the invention. Mean±SD, N=3.
FIG. 10. Recovery of ^89Zr-oxine complexes from the reaction vial over time as a function of the amount of polysorbate 80. […] 10 µL aliquots were removed from the glass vial immediately after addition (0 min) and after 15 min, 30 min, 1, 2, 24, 48, 72 and 168 h, then gamma-counted at the end of the experiment. The recovered activity is expressed as the activity in the aliquot at the indicated time as a percentage of the activity sampled immediately after addition of ^89Zr to the formulation of the invention. […]
The stability of the compositions described herein can be assessed, for example, in terms of their recovered activity. The recovered activity is expressed as the percentage of activity (i.e. radioactivity, as assessed by gamma-counting) in a sample at the time of measurement, relative to the activity sampled immediately after addition of the radioactive metal containing solution to the oxine formulation described herein. […]
Activity recovery from vial: ^89Zr was added to 100 µL of the formulation. […] The aliquots were gamma-counted on day 7 after addition of ^89Zr. The percentage of activity recovered from the vial was determined as the counts in each sample divided by the counts in the reference sample.

WBC = assay: Viability of radiolabelled cells, Trypan Blue dye exclusion; format: cell-based, human
Method: FIG. 16. WBC radiolabelling with ^89Zr-oxine and ^111In-oxine. Percentage of viable ^89Zr- and ^111n-labelled WBC after 4 h and 24 h, measured using the Trypan blue assay. Mean ± SD of n=6 per group, Student’s two-tailed paired t-test. ns: not significant (p≥0.05).
Viability was assessed by microscopy using the Trypan Blue dye exclusion method. Cell viability after radiolabelling with ^89Zr-oxine was 99.4±0.3% immediately after labelling, 97.0±2.3% after 4 h and 92.6±4.8% after 24 h (FIG. 16).

WBCs = assay: In vitro chemotaxis assay of radiolabelled WBC towards fMLP; format: cell-based, human; conditions: vs ^111In-oxine and unlabelled control cells
Method: FIG. 17. Chemotaxis of radiolabelled WBC. Cells were incubated with ^89Zr-oxine, ^111In-oxine, or vehicle only. The chemotaxis index is the number of cells migrating towards 10 nM fMLP divided by the number of cells migrating towards vehicle, averaged from triplicates for each sample. Each point represents one donor. Bars represent the mean ± SD of n = 9, 10 and 10 individual samples. p≥0.05.
The functionality of WBCs radiolabelled as in Example 8 was tested using an in vitro chemotaxis assay, where the number of WBCs migrating in response to the neutrophil chemoattractant N-formyl-Met-Leu-Phe (fMLP) was measured.
After radiolabelling, red blood cells (RBCs) were removed from the cell pellets hypotonic lysis. Cells were resuspended in 4.5 mL cold H2O for 30 s, after which isotonicity was restored by addition of 0.5 mL 10x PBS. Lysed RBC were removed by centrifugation and the remaining WBC were resuspended in assay medium at 3.5×10^6 cells/mL. […] The top wells were emptied, the plate was centrifuged at 150 g for 5 min to detach the cells from the membrane and the cells in the bottom wells were counted using a haemocytometer. The chemotaxis index (CI) was calculated by dividing the number of WBC in the wells containing fMLP by the number of WBC in the wells containing medium only.

WBC populations = assay: Relative activity per cell in FACS-sorted WBC populations, gamma-counted; format: cell-based, human; conditions: flow-assisted cell sorting
Method: FIG. 18. Relative activity per cell of ^89Zr in WBC populations after labelling of mixed WBC with ^89Zr-oxine. Radiolabelled WBC were sorted by FACS and gamma-counted. Each point represents cells from an individual donor.
To determine whether certain subtypes of WBC had preferential uptake of ^89Zr-oxine, radiolabelled WBC were stained with fluorescent monoclonal antibodies, automatically sorted and gamma-counted. ^89Zr-radiolabelled WBC were stained (15 min at 4° C.) with a combination of CD45-APC-Vio770 (#130-110-773), CD3-PE (REA613, #130-113-701), CD14-APC (#130-110-578), CD19-PE-Vio770 (REA675, #130-114-173) and CD16-FITC (REA423, #130-113-954) antibodies to sort samples into neutrophils, eosinophils, monocytes, T cells and B cells, or CD45-APC-Vio770, […] (REA175, #130-117-800) and CD41a-PE (REA386, #130-121-429) to sort red blood cells and platelets. Compensation settings were adjusted using beads (anti-REA MACS® Comp, #130-104-693). Samples were analysed and sorted on a FACSMelody instrument (BD Biosciences) equipped with blue (488 nm), yellow-green ([…]) and red (633 nm) lasers. For each cell type, a fixed number of events was collected, and the fractions were gamma-counted to determine the amount of activity per cell.

Human WBCs = assay: Radiolabel retention in radiolabelled WBC in autologous cell free plasma; format: cell-based; conditions: p>0.05, n=10
Method: Human WBCs from 10 healthy donors were radiolabelled with ^89Zr-oxine and ^111In-oxine as described in Example 8 and an intra-individual comparison of labelling with ^89Zr-oxine and ^111In-oxine was performed. Labelling efficiency was determined as described in Example 7. For radiolabel retention studies, radiolabelled WBC were suspended in autologous CFP (cell free plasma), in triplicate in a 24-well plate and incubated at 37° C. Cells were collected after 4 h or 24 h, diluted with PBS, centrifuged at 200 g for 10 min, and supernatants and pellets were measured in a dose calibrator to determine retention using the same formula as for labelling efficiency. The labelling efficiency of WBCs with ^89Zr-oxine was 48.7±6.3%, vs 89.1±9.5 (p<0.0001, n=10) for ^111In-oxine (FIG. 14). Cellular retention of ^89Zr was 91.4±1.4% after 4 h incubation in autologous CFP and 86.6±2.9% after 24 h (FIG. 15). […] The labelling of WBC with ^89Zr-oxine was reliable, consistently achieving 45-50% labelling efficiency with 160-480 million cells.

SMILES: C/C(=N\[O-])[C@@H](C)[N-]CC(C)(C)C[N-][C@H](C)/C(C)=N/O.[O]=[99Tc+3] (racemic) [^99mTc-HMPAO]
- preferential accumulation in leucocyte subtype (eosinophils): accumulated preferentially in eosinophils

SMILES: c1cnc2c([O][89Zr]([O]c3cccc4cccnc34)([O]c3cccc4cccnc34)[O]c3cccc4cccnc34)cccc2c1 [^89Zr-oxine]
- labelling efficiency of EVs compared to unchelated ^89Zr (Extracellular vesicles): higher labelling efficiency
- added activity recoverable from the vial ([1]; 1 M HEPES buffer (pH 7.9), no surfactant or organic solvent, glass vessel, 15 min after addition of ^89Zr): 46%
- added ^89Zr activity recoverable ([1]; after 1 h): 46%
- added ^89Zr activity recoverable ([1]; after 24 h): less than 6%
- cell viability after radiolabelling (WBC; after 4 h): 97.0±2.3%
- cell viability after radiolabelling (WBC; after 24 h): 92.6±4.8%
- cell viability after radiolabelling (WBC; immediately after labelling): 99.4±0.3%
- chemotactic properties of labelled WBC (WBCs): retained their chemotactic properties
- preferential uptake by leukocyte populations (WBC populations): no preferential uptake by any specific leukocyte population
- uptake in RBCs and platelets (WBC populations): significant uptake

SMILES: c1cnc2c([O][111In]([O]c3cccc4cccnc34)[O]c3cccc4cccnc34)cccc2c1 [^111In-oxine, reference compound]
- viability compared with ^89Zr-oxine (WBC; p>0.05, n=6-10): no significant differences
- radiolabelling agent retention compared with ^89Zr-oxine (Human WBCs): no significant differences

— patent US20230293735A1, “OXINE-CONTAINING CELL RADIOLABELLING AGENTS” (priority 2020, published 2023)
